Results reported in patent US9463192B2, “Trk-inhibiting compound” (ONO PHARMACEUTICAL CO., LTD., priority 2013, dated 2016).
Like-named read-outs stand apart in the source and are kept apart here.

Legend:
[1] = molecular target: human TrkA (Homo sapiens (Human), UniProt P04629); assay: Measurement of TrkA kinase-inhibiting activity using human TrkA-expressing cells; format: cell-based; details: CHO-K1 cells expressing human TrkA and NFAT-bla; NGF 50 ng/ml; TR-FRET reporter
Method: TrkA kinase-inhibiting activity in cell systems was measured using CHO-K1 cells exressing human TrkA and NFAT-bla (CellSenser™ TrkA-NFAT-bla CHO-K1 cells, Invitrogen).
On the day before the assay, CellSenser™ TrkA-NFAT-bla CHO-K1 cells were suspended in an assay medium (Opti-MEM1 Reduced Serum Medium (Invitrogen) containing 0.5% dialysed fetal bovine serum (Invitrogen), 0.1 mM nonessential amino acids (Invitrogen), 1 mM sodium pyruvate (Invitrogen) and antibiotics (100 U/mL penicillin and 100 µg/mL streptomycin (Invitrogen))) and plated at a density of 2.4×10^4 cells/40 μL/well in a 96-well clear bottom plate (Corning, Catalogue No.: 3882). In some wells were added only the assay medium at 40 μL/well (Cell-free). On the day of the assay, 10 mM of the present compound (DMSO solution) was distributed in a 96-well plate (Costar, Catalogue No.: 3363) and serially diluted with DMSO with the geometrical ratio of 3. The serial dilutions were diluted with the assay medium to 100-fold to prepare a solution of the present compound with a 10-fold concentration (DMSO concentration: 1%). To the plate where cells were plated was added the present compound at 5 µL/well and the plate was incubated in a CO2 incubator with 5% CO2, 95% Air at 37° C. for 30 minutes. For a control and a blank, the assay medium containing 1% DMSO was added at 5 µL/well in place of the solution of the present compound. Subsequently the assay medium containing NGF (Mouse 2.5s, Natural, Invitrogen) was added to the plate at 5 µL/well (final concentration of NGF: 50 ng/ml) and the plate was incubated in a CO2 incubator with 5% CO2, 95% Air at 37° C. for 5 hours. For the blank group, the assay medium was added in place of NGF at 5 µL/well. A reporter assay detection reagent ([…]) was added to the plate which was then incubated in the dark at room temperature for 120 minutes. The reporter assay detection reagent was prepared from LiveBLAzer™-FRET B/G Loading Kit (Invitrogen). On the Analyst GT (Molecular Devices Japan, K.K.) the wells were irradiated with excitation light at 405 nm and the fluorescence intensities at 460 nm and 530 nm were measured. The time resolved fluorescence resonance energy transfer (TR-FRET) ratio of each well was calculated according to the following Equation 1: TR-FRET ratio=(A460x−A460F)/(A530x−A530F) [Eq. 1]
A460x: the fluorescence intensity at 460 nm of the present compound, control or blank;
A460F: the fluorescence intensity at 460 nm of the Cell-free;
A530x: the fluorescence intensity at 530 nm of the present compound, control or blank; and
A530x: the fluorescence intensity at 530 nm of the Cell-free.
The TR-FRET inhibition rate (%) of the present compound was calculated according to the following Equation 2: Inhibition rate (%)={1−(AX−AB)/(AC−AB)}×100 [Eq. 2]
wherein AX: the TR-FRET ratio when the present compound is added;
AB: the TR-FRET of the blank; and
AC: the TR-FRET of the control.
The IC50 value by the present compound was calculated from the inhibition curve based on the inhibition rate of the present compound at respective concentrations.

[2] = system: NGF-induced vascular hyper permeability; assay: Inhibition of rat NGF-induced vascular hyper permeability; format: in vivo; details: po, 1 mg/kg orally, read-out: Inhibition rate of vascular hyper permeability (%) (time after administration (h))
Method: TrkA-inhibiting activity of the present compound was evaluted in vivo. The present compound dissolved in a medium was orally administered (adminstered volume: 5 mL/kg) to male CD(SD)IGS rats (7- to 9-week old, Charles River laboratories Japan, Inc.) shaved on the back. A medium was orally administered (adminstered volume: 5 mL/kg) to the control and normal groups. After 6, 12 or 14 hours of administration, 3 μg/mL of a NGF (Mouse 2.5s, Natural, Invitrogen) solution prepared in 0.1% BSA (Sigma-Aldrich)-containing saline was intracutaneously administered (dose; 50 μL/site) at 3 sites on the back of animals under halothane anesthesia. For the normal group, 0.1% BSA-containing saline was intracutaneously administered (dose; […]) at 3 sites on the back. Immediately after intracutaneous administration, 1% Evans Blue (Tokyo Chemical Industriy Co., Ltd.) was administered intravenously from tail (adminstered volume: 3 mL/kg). After 10 minutes of administration, the animals were sacrificed by bleeding due to incision of the abdominal aorta. The sites of intracutaneous administration on the back (3 sites) were excised and the skin samples were respectively transferred to the wells in a 48-well plate (Asahi Glass Co., Ltd.). Formamide (0.8 mL/well) was added to the plate and the plate was sealed and incubated overnight at 60° C. The formamide extraction solution (200 μL) was transferred to a 96-well plate and the absorbance (wavelength: 620 nm) of Evans Blue extracted in formamide was measured on an absorbance microplate reader (SpectraMAX 190, Molecular Devices Japan, K.K.). Standard samples of Evans Blue dissolved in formamide (0, 0.78, 1.56, 3.13, 6.25, 12.5, 25 and 50 µg/mL) were measured at the same time for the absorance (wavelength: 620 nm) to generate a calibration curve. Based on the calibration curve and the absorbances of samples, the concentrations of Evans Blue in the sample was calculated. The concentrations of Evans Blue for three skin samples collected from one aminal were averaged to obtain the vale for the animal. The rate of inhibition for rat NGF-induced vascular hyper permeability of the present compound was calculated according to the following Equation: Inhibition rate (%)={1−(AX−AN)/(AC−AN)}×100 [Eq. 3]
wherein AX: the concentration of Evans Blue of the test compound (an average value of 3 samples from one animal);
AN: the concentration of Evans Blue of the normal group (an average value of 3 samples from one animal);
AC: the concentration of Evans Blue of the control group (an average value of 3 samples from one animal).

Chain of human TrkA (P04629 33-796): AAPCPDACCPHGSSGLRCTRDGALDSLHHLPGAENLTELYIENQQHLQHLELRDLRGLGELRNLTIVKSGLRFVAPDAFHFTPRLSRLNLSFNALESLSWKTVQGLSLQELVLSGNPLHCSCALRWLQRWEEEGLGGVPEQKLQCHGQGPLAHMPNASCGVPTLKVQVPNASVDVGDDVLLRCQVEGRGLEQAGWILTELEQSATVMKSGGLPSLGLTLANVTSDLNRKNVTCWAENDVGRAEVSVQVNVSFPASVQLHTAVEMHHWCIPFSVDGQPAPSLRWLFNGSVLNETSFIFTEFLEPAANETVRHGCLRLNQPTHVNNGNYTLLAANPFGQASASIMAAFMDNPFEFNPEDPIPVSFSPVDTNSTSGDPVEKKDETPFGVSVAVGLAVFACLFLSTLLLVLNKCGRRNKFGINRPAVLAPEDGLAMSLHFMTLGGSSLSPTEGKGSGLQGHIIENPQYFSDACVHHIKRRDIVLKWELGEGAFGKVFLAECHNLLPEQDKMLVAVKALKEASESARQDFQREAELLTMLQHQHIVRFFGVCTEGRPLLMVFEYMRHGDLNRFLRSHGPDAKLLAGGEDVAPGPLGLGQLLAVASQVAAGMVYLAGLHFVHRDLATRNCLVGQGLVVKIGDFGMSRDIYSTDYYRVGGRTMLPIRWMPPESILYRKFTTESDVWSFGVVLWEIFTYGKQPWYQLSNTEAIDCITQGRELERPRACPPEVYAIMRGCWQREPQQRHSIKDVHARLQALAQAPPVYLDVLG

Row | Structure (SMILES) | IC50 [1] [µM] | inhibition in vivo at 1 mg/kg ([2]; 14 h after administration) [%] | inhibition in vivo at 1 mg/kg ([2]; 12 h after administration) [%]
1 | Nc1ncc(Cl)cc1-c1ccc(Oc2ncc(NC(=O)Nc3cc(C(F)(F)F)ccc3-n3cc(Cl)cn3)cn2)cc1 [Example 15-63, 1-{2-[4-(2-amino-5-chloro-3-pyridinyl)phenoxy]-5-pyrimidinyl}-3-[2-(4-chloro-1H-pyrazol-1-yl)-5-(trifluoromethyl)phenyl]urea] | 0.002 | 99 | –
2 | Cc1ccccc1-c1ccc(C(F)(F)F)cc1NC(=O)Nc1cnc(Oc2ccc(-c3cnn4ccc(N(C)C)nc34)cc2)nc1 [Example 21-75, 1-(2-{4-[5-(dimethylamino)pyrazolo[1,5-a]pyrimidin-3-yl]phenoxy}-5-pyrimidinyl)-3-[2′-methyl-4-(trifluoromethyl)-2-biphenylyl]urea] | 0.004 | 100 | –
3 | Nc1ncc(Cl)cc1-c1ccc(Oc2ncc(NC(=O)Nc3ccc(C(F)(F)F)cc3C(F)(F)F)cn2)cc1 [Example 15-77, 1-{2-[4-(2-amino-5-chloro-3-pyridinyl)phenoxy]-5-pyrimidinyl}-3-[2,4-bis(trifluoromethyl)phenyl]urea] | 0.002 | 100 | –
4 | Nc1ncc(Cl)cc1-c1ccc(Oc2ncc(NC(=O)Nc3cc(C(F)(F)F)ccc3-n3ccc(C(F)(F)F)n3)cn2)cc1 [Example 8-2, 1-(2-(4-(2-amino-5-chloropyridin-3-yl)phenoxy)pyrimidin-5-yl)-3-(5-(trifluoromethyl)-2-(3-(trifluoromethyl)-1H-pyrazol-1-yl)phenyl)urea] | 0.002 | 100 | –
5 | O=C(Nc1cnc(Oc2ccc(-c3cnn4ccccc34)cc2)nc1)Nc1cc(C(F)(F)F)ccc1-c1cccnc1 [Example 23-11, 1-(2-(4-(pyrazolo[1,5-a]pyridin-3-yl)phenoxy)pyrimidin-5-yl)-3-(2-(pyridin-3-yl)-5-(trifluoromethyl)phenyl)urea] | 0.001 | – | –
6 | O=C(Nc1cnc(Oc2ccc(-c3cnc4[nH]ncc4c3)cc2)nc1)Nc1cc(C(F)(F)F)ccc1-c1cccnc1 [Example 23-12, 1-(2-(4-(1H-pyrazolo[3,4-b]pyridin-5-yl)phenoxy)pyrimidin-5-yl)-3-(2-(pyridin-3-yl)-5-(trifluoromethyl)phenyl)urea] | 0.001 | – | –
7 | O=C(Nc1cnc(Oc2ccc(-c3cnc4[nH]ccc4c3)cc2)nc1)Nc1cc(C(F)(F)F)ccc1-c1cccnc1 [Example 23-7, 1-(2-(4-(1H-pyrrolo[2,3-b]pyridin-5-yl)phenoxy)pyrimidin-5-yl)-3-(2-(pyridin-3-yl)-5-(trifluoromethyl)phenyl)urea] | 0.002 | – | –
8 | O=C(Nc1cnc(Oc2ccc(-c3cnc4ccccn34)cc2)nc1)Nc1cc(C(F)(F)F)ccc1-n1cccn1 [Example 23-3, 1-(2-(1H-pyrazol-1-yl)-5-(trifluoromethyl)phenyl)-3-(2-(4-(imidazo[1,2-a]pyridin-3-yl)phenoxy)pyrimidin-5-yl)urea] | 0.001 | – | –

Continued by falling IC50 [1], values first:

Row | IC50 [1] [µM] | Structure (SMILES) | inhibition in vivo at 1 mg/kg ([2]; 14 h after administration) [%] | inhibition in vivo at 1 mg/kg ([2]; 12 h after administration) [%]
9 | 0.001 | CCOc1ccc2ncc(-c3ccc(Oc4ncc(NC(=O)Nc5cc(C(F)(F)F)ccc5-c5cccnc5)cn4)cc3)n2n1 [Example 22-34, 1-{2-[4-(6-ethoxyimidazo[1,2-b]pyridazin-3-yl)phenoxy]-5-pyrimidinyl}-3-[2-(3-pyridinyl)-5-(trifluoromethyl)phenyl]urea] | 91 | –
10 | 0.001 | Cn1nccc1-c1ccc(C(F)(F)F)cc1NC(=O)Nc1cnc(Oc2ccc(-c3cnn4ccc(N5CCC5)nc34)cc2)nc1 [Example 21-2, 1-(2-(4-(5-(azetidin-1-yl)pyrazolo[1,5-a]pyrimidin-3-yl)phenoxy)pyrimidin-5-yl)-3-(2-(1-methyl-H-pyrazol-5-yl)-5-(trifluoromethyl)phenyl)urea] | 100 | –
11 | 0.001 | O=C(Nc1cnc(Oc2ccc(-c3cnn4ccc(N5CCC5)nc34)cc2)nc1)Nc1cc(C(F)(F)F)ccc1-c1cccnc1 [Example 21-1, 1-(2-(4-(5-(azetidin-1-yl)pyrazolo[1,5-a]pyrimidin-3-yl)phenoxy)pyrimidin-5-yl)-3-(2-(pyridin-3-yl)-5-(trifluoromethyl)phenyl)urea] | 87 | –
12 | 0.001 | O=C(Nc1cnc(Oc2ccc(-c3cnn4cccnc34)cc2)nc1)Nc1cc(C(F)(F)F)ccc1-c1cccnc1 [Example 21-13, 1-(2-(4-(pyrazolo[1,5-a]pyrimidin-3-yl)phenoxy)pyrimidin-5-yl)-3-(2-(pyridin-3-yl)-5-(trifluoromethyl)phenyl)urea] | – | 100
13 | 0.001 | COc1ccn2ncc(-c3ccc(Oc4ncc(NC(=O)Nc5cc(C(F)(F)F)ccc5-c5cccnc5)cn4)cc3)c2n1 [Example 21-9, 1-(2-(4-(5-methoxypyrazolo[1,5-a]pyrimidin-3-yl)phenoxy)pyrimidin-5-yl)-3-(2-(pyridin-3-yl)-5-(trifluoromethyl)phenyl)urea] | 100 | –
14 | 0.001 | Nc1ncc(Cl)cc1-c1ccc(Oc2ncc(NC(=O)Nc3ccc(C(F)(F)F)cc3-n3cccn3)cn2)cc1 [Example 15-4, 1-(2-(1H-pyrazol-1-yl)-4-(trifluoromethyl)phenyl)-3-(2-(4-(2-amino-5-chloropyridin-3-yl)phenoxy)pyrimidin-5-yl)urea] | 100 | –
15 | 0.001 | O=C(Nc1cnc(Oc2ccc(-c3cnc4cnccn34)cc2)nc1)Nc1cc(C(F)(F)F)ccc1-c1cccnc1 [Example 23-10, 1-(2-(4-(imidazo[1,2-a]pyrazin-3-yl)phenoxy)pyrimidin-5-yl)-3-(2-(pyridin-3-yl)-5-(trifluoromethyl)phenyl)urea] | – | –
16 | 0.0008 | CS(=O)(=O)c1ccc(C(F)(F)F)cc1NC(=O)Nc1cnc(Oc2ccc(-c3cc(C(F)(F)F)cnc3N)cc2)nc1 [Example 15-98, 1-(2-{4-[2-amino-5-(trifluoromethyl)-3-pyridinyl]phenoxy}-5-pyrimidinyl)-3-[2-(methylsulfonyl)-5-(trifluoromethyl)phenyl]urea] | 80 | –
